The subject of experiment [1] is gastric acid secretion. Kind of experiment: inhibition of gastric acid secretion in the pylorus ligated rat model. In kind it is in vivo, Male Sprague-Dawley rats. The conditions noted are these: for inhibition in vivo at 10 µmol/kg / inhibition in vivo at 2 µmol/kg: Rattus norvegicus, read-out: Percent Inhibition; for ED50: Table VII, estimated from pylorus ligated rat data; for Inhibition: Table VI; for inhibition in vivo at 2 µmol/kg: 2.0 μmoles/kg. From the text:
The gastric acid inhibition activity of direct acting 5-HT1A agonists was established by evaluations using the pylorus ligated rat model. In the pylorus ligated rat model, changes in basal acid secretion may reflect a stimulatory or inhibitory action depending on treatment of compound type tested. The compounds tested were confirmed by various receptor binding tests to have an affinity for the 5-HT1A receptor prior to testing in the pylorus ligated rat model.
The pylorus ligated rat model used is a modification of the procedure developed by Shay (Shay, H., Komarov, A. A. and Greenstein, M.: "Effects of vagotomy in the rat." Arch. Surg. 49:210-226, 1949). Male Sprague-Dawley rats weighing approximately 200 g were starved 24 hours prior to using, with water allowed ad libitum. Under light ether anesthetic the pylorus is ligated, simultaneously the rat is dosed intraperitoneally (i.p.) or subcutaneously (s.c.) and allowed 2 hours for stomach acid accumulation. At the end of 2 hours the rats are sacrificed. Stomach content is measured and titrated to a pH end point of 7.0. Each experiment has its own control group for determining percent of acid change over the 2-hour time period.
Specific compounds within the scope of the above general classes of direct acting 5-HT1A agonists were tested. For evaluation purposes, the compound to be tested is dissolved in distilled water, or in 10% dimethyl sulfoxide, depending upon its solubility. The results of these evaluations are set forth below in Tables I through VI. All compounds were dosed intraperitoneally, unless otherwise indicated.
The ED50 values for certain specific compounds were estimated based on data from the pyrolus ligated rat model evaluations. […] Under "Dose", i.p. means intraperitoneally and s.c. means subcutaneously.

Experiment [2] deals with gastric secretion. The conditions noted are these: intravenous infusion in humans, cited from earlier work; for inhibition of gastric secretion (in words): spontaneous and histamine induced.
[3] abbreviates: ip, 2 h, Table V, 10 μmoles/kg, intraperitoneally, 2 hours.
Where [4] appears, read: ip, 2 h, Table I, 10 μmoles/kg, intraperitoneally, 2 hours.
The mark [5] stands for this setting: ip, 2 h, Table II, 10 μmoles/kg, intraperitoneally, 2 hours.
Where [6] appears, read: ip, 2 h, Table IV, 10 μmoles/kg, intraperitoneally, 2 hours.
Setting [7] is: Table I, 10 μmoles/kg, intraperitoneally, 2 hours.
[8] abbreviates: 10 μmoles/kg, intraperitoneally, 2 hours.
Setting [9] is: ip, 2 h, Table II, intraperitoneally, 2 hours.

Read-outs that look alike come from different tables or passages of the source.

For `COc1ccc(CCNCC2COc3ccccc3O2)cc1OC` (stereo not shown) [Evaluation Example 26], in experiment [1] (setting [3]), the inhibition in vivo at 10 µmol/kg was determined as 58.9 ± 6.6%.
For the compound `O=C1NCN(c2ccccc2)C12CCN(CC1COc3ccccc3O1)CC2` (single isomer, unassigned) [Evaluation Example 29], in experiment [1] (Table V, 10 μmoles/kg, intraperitoneally, 2 hours), the “Percent Inhibition” value came out at 24.6 ± 9.2%.
As to `CCCN(CCC)C1CCc2cccc(Br)c2C1` (stereo not shown) [Evaluation Example 6, 2-Di-n-propylamino-8-bromo-1,2,3,4-tetrahydronaphthalene], the inhibition in vivo at 10 µmol/kg in experiment [1] (setting [4]) came to 39.6 ± 10.9%.
On the same count and under the same terms, in the case of `CSc1cccc2c1CC(N(C)C)CC2` (stereo not shown) [Evaluation Example 5, 2-Dimethylamino-8-thiomethyl-1,2,3,4-tetrahydronaphthalene] it was 80.7 ± 8.4%.
Turning to `O=C1NCN(c2ccccc2)C12CCN(CC1COc3ccccc3O1)CC2` (single isomer, unassigned) [Evaluation Example 28], in experiment [1] (setting [3]), the inhibition in vivo at 10 µmol/kg is 29.3 ± 10%.
On to `CCCN(CCC)C1Cc2c[nH]c3ccc(OC)c(c23)C1` (stereo not shown) [Evaluation Example 14], for which the inhibition in vivo at 10 µmol/kg in experiment [1] (setting [5]) was found to be 86.4 ± 4%. In experiment [1] (ip, 2 h, i.p., read-out: ED50), the ED50 was under 0.1 µmol/kg.
On to `O=C1CC2(CCCC2)CC(=O)N1CCCCN1CCN(c2ncccn2)CC1` [Evaluation Example 33, 8-[4-[4-(2-pyrimidinyl)-1-piperazinyl]butyl]8-azaspiro[4.5]decane-7,9-dione, reference compound], for which the ED50 in experiment [1] (sc, 2 h, s.c., read-out: ED50) is 4.19 µmol/kg.
Turning to `CCCN(CCC)C1CCc2cccc(OC)c2C1` (racemic) [Evaluation Example 1, (±) 8-methoxy-2-(dipropylamino)-1,2,3,4-tetrahydronaphthalene], in experiment [1] (setting [4]), the inhibition in vivo at 10 µmol/kg came to 96.4 ± 0.7%. In experiment [1] (ip, 2 h, i.p., read-out: ED50), the ED50 is 1.54 µmol/kg.
In the case of `CCCN(CCC)C1CCc2cccc(F)c2C1` (stereo not shown) [Evaluation Example 7], the inhibition in vivo at 10 µmol/kg in experiment [1] (setting [4]) turned out to be 24.6 ± 7.9%.
Take `CCCN(CCC)C1Cc2c[nH]c3ccc([N+](=O)[O-])c(c23)C1` (stereo not shown) [Evaluation Example 11]: the inhibition in vivo at 10 µmol/kg in experiment [1] (setting [5]) was 89.8 ± 1.4%.
Same read-out and setting: in the case of `CN(C)C1Cc2c[nH]c3ccc(C#N)c(c23)C1` (stereo not shown) [Evaluation Example 10] it was 91.6 ± 3.9%.
Turning to `CCCN(CCC)C1CCc2cccc(C(N)=O)c2C1` (stereo not shown) [Evaluation Example 4], the inhibition in vivo at 10 µmol/kg in experiment [1] (setting [4]) was found to be 82.5 ± 7.4%.
On to `c1ccc(CCNCC2COc3ccccc3O2)cc1` (stereo not shown) [Evaluation Example 30, 2-[(2-phenylethyl)aminomethyl]-1,4-benzodioxane], for which the inhibition in vivo at 10 µmol/kg in experiment [1] (setting [3]) turned out to be 0.3 ± 14.1%.
With `OC(CNC1CCCCCCC1)COc1ccccc1C1CCCC1` (stereo not shown) [Evaluation Example 21, 1-(2-Cyclopentylphenoxy)-3-(cyclooctylamino)-2-propanol ethanedioate], the inhibition in vivo at 10 µmol/kg in experiment [1] (setting [6]) was 65.1 ± 5.7%.
Take `CCCN(CCC)C1Cc2c[nH]c3ccc(C#N)c(c23)C1` (stereo not shown) [Evaluation Example 9]: the inhibition in vivo at 10 µmol/kg in experiment [1] (setting [5]) was found to be 92.2 ± 3.2%.
For the compound `CCCN(CCC)[C@H]1CCc2cccc(SC)c2C1.Cl` [Evaluation Example 3, (S)-8-Thiomethyl-N,N-dipropyl-2-aminotetralin hydrochloride], the “Percent Inhibition” value in experiment [1] (setting [7]) is given as 89.8 ± 4.9%. The median effective dose (ED50) in experiment [1] (i.p., 120 min) is 1.42 µmol/kg.
With `N[C@@H](Cc1c[nH]c2ccc(O)cc12)C(=O)O` [5-HTP, 5-hydroxytryptophane], in experiment [2], the “production of mucus (in words)” value is “increasing the production of mucus”; the “inhibition of gastric secretion (in words)” value was “inhibits the volume and acidity of both spontaneous and histamine induced gastric secretion”.
As for `CCCN(CCC)C1CC1c1ccccc1O` (stereo not shown) [Evaluation Example 32], in experiment [1] (setting [8]), the Inhibition is given as 22.6 ± 11.8.
For the compound `Oc1cccc2c1OC(CNCCCC1CCCCC1)CO2` (stereo not shown) [Evaluation Example 25, 2-[(3-Cyclohexylpropyl)aminomethyl]-8-hydroxy-1,4-benzodioxane], the inhibition in vivo at 10 µmol/kg in experiment [1] (setting [3]) was determined as 70.4 ± 8.4%.
As to `OC(CNC1CC2CCC1C2)COc1ccccc1C1CCCC1` (stereo not shown) [Evaluation Example 20], the inhibition in vivo at 10 µmol/kg in experiment [1] (setting [6]) was 72.4 ± 7.5%.
Same read-out and setting: in the case of `OC(CNC1CCCC1)COc1ccccc1C1CCCC1` (stereo not shown) [Evaluation Example 24, 1-(2-Cyclopentylphenoxy)-3-(Cyclopentylamino)-2-propanol ethanedioate] it was 19.7 ± 14.8%.
Regarding `CCCN(CCC)CCc1c[nH]c2ccc(C(N)=O)cc12` [Evaluation Example 19, N,N-dipropyl-5-carboxamidotryptamine], in experiment [1] (ip, 2 h), the inhibition in vivo at 10 µmol/kg is 92.7 ± 3.3%.
In the case of `CCCN(CCC)C1Cc2c[nH]c3ccc(Br)c(c23)C1` (stereo not shown) [Evaluation Example 12], in experiment [1] (setting [5]), the inhibition in vivo at 10 µmol/kg was determined as 87 ± 1.8%.
Consider `NCCc1c[nH]c2ccc(O)cc12` [5-HT, 5-hydroxytryptamine, reference compound], for which the “inhibition of gastric acid secretion” value in experiment [1] (20 micromoles/kg, standard) is recorded as 56.1%. The ED50 in experiment [1] (ip, 2 h, i.p., read-out: ED50) is 11.5 µmol/kg. In experiment [2], the “production of mucus (in words)” value is on record as “increasing the production of mucus”; the “inhibition of gastric secretion (in words)” value is “inhibits the volume and acidity of both spontaneous and histamine induced gastric secretion”.
Regarding `CCCN(CCC)C1CC1c1cccc(O)c1` (stereo not shown) [Evaluation Example 31], the Inhibition in experiment [1] (setting [8]) is on record as 48.2 ± 17.5.
For the compound `CCCN(CCC)[C@@H]1CCc2cccc(SC)c2C1.Cl` [Evaluation Example 2, (R)-8-Thiomethyl-N,N-dipropyl-2-aminotetralin hydrochloride], in experiment [1] (setting [7]), the “Percent Inhibition” value came to 94.9 ± 1.2%. In experiment [1] (i.p., 120 min), the ED50 was 1.56 µmol/kg.
In the case of `CCCN(CCC)C1Cc2c[nH]c3ccc(C(N)=O)c(c23)C1` (stereo not shown) [Evaluation Example 18], the inhibition in vivo at 10 µmol/kg in experiment [1] (ip, 2 h) worked out at 65.5 ± 7.1%.
Regarding `CCCN(CCC)C1Cc2c[nH]c3ccc(C(=O)OC)c(c23)C1` (racemic) [Evaluation Example 13, (±)-4-(Di-n-propylamino)-1,3,4,5-tetrahydrobenz[c,d]indole-6-carboxylic acid, methyl ester], the inhibition in vivo at 2 µmol/kg in experiment [1] (setting [9]) was found to be 86.4 ± 2.5%. The ED50 in experiment [1] (ip, 2 h, i.p., read-out: ED50) was under 0.1 µmol/kg.
For the compound `CCOc1cccc2c1OC(CNCCc1ccccc1)CO2` (stereo not shown) [Evaluation Example 27, 2-[(2-phenylethyl)aminomethyl]-8-ethoxy-1,4-benzodioxane], the inhibition in vivo at 10 µmol/kg in experiment [1] (setting [3]) was determined as 38.3 ± 15.9%.
In the case of `CCCN(CCC)C1Cc2cn(C(C)C)c3ccc(OC)c(c23)C1` (stereo not shown) [Evaluation Example 16], the inhibition in vivo at 10 µmol/kg in experiment [1] (setting [5]) was 80.9 ± 5.5%.
For the compound `CCCN(CCC)C1CCc2cccc(O)c2C1` (stereo not shown) [Evaluation Example 8, 8-hydroxy-2-dipropylamino-1,2,3,4-tetrahydronaphthalene, reference compound], in experiment [1] (ip, 2 h, Table I, intraperitoneally, 2 hours), the inhibition in vivo at 2 µmol/kg was 80.1 ± 6.3%. In addition, the ED50 in experiment [1] (ip, 2 h, i.p., read-out: ED50) is 1.56 µmol/kg; in experiment [1] (sc, 2 h, s.c., read-out: ED50), 0.46 µmol/kg.
Consider `CN(C)C1Cc2c[nH]c3ccc(C=O)c(c23)C1` (racemic) [Evaluation Example 17, (±)-4-(Dimethylamino)-1,3,4,5-tetrahydrobenz[c,d]indole-6-carboxaldehyde], for which the inhibition in vivo at 2 µmol/kg in experiment [1] (setting [9]) amounted to 79.2 ± 4.6%. The median effective dose (ED50) in experiment [1] (ip, 2 h, i.p., read-out: ED50) was 1.26 µmol/kg.
In the case of `CCCN(CCC)C1Cc2c[nH]c3ccc(C(=O)O)c(c23)C1` (stereo not shown) [Evaluation Example 15], the inhibition in vivo at 10 µmol/kg in experiment [1] (setting [5]) was found to be 81.7 ± 5.8%. Also, the ED50 in experiment [1] (ip, 2 h, i.p., read-out: ED50) was 1 µmol/kg.

For orientation: ED50 means the dose that gives a 50% effect, or the effect in half of the subjects.

(Values after patent US5258379A, “Method of inhibiting gastric acid secretion with n-arylpiperazines” (Eli Lilly and Company, priority 1992, dated 1993).)
